Values quoted from earlier work, collected in patent US8415326B2, “Pharmaceutical composition comprising chito-oligomers” (Genis Ehf., priority 2001, dated 2013).

Legend:
activated macrophages = conditions: reference [23]
[1] = system: normal human articular chondrocytes; conditions: reference [24]
[2] = system: mesothelial cells and fibroblasts; conditions: reference [11]

SMILES | effect on nitric oxide (NO) production by activated macrophages (activated macrophages) | effect on NO production in normal human articular chondrocytes [1] | synthesis of hyaluronan [2]
CC(=O)N[C@H]1[C@H](O[C@H]2[C@H](O)[C@@H](NC(C)=O)[C@H](O[C@H]3[C@H](O)[C@@H](NC(C)=O)C(O)O[C@@H]3CO)O[C@@H]2CO)O[C@H](CO)[C@@H](O[C@@H]2O[C@H](CO)[C@@H](O[C@@H]3O[C@H](CO)[C@@H](O[C@@H]4O[C@H](CO)[C@@H](O)[C@H](O)[C@H]4NC(C)=O)[C@H](O)[C@H]3NC(C)=O)[C@H](O)[C@H]2NC(C)=O)[C@@H]1O (some centres unmarked) [Hexa-N-acetylchitohexaose] | inhibited NO production but with less potency | – | –
CC(=O)N[C@H]1C(O)O[C@H](CO)[C@@H](O)[C@@H]1O (some centres unmarked) [N-acetylglucosamine] | – | inhibit NO production | increases the synthesis of hyaluronan
N[C@H]1C(O)O[C@H](CO)[C@@H](O)[C@@H]1O (some centres unmarked) [glucosamine] | – | inhibit NO production | –
CC(=O)N[C@H]1[C@H](O[C@H]2[C@H](O)[C@@H](NC(C)=O)[C@H](O[C@H]3[C@H](O)[C@@H](NC(C)=O)C(O)O[C@@H]3CO)O[C@@H]2CO)O[C@H](CO)[C@@H](O[C@@H]2O[C@H](CO)[C@@H](O[C@@H]3O[C@H](CO)[C@@H](O)[C@H](O)[C@H]3NC(C)=O)[C@H](O)[C@H]2NC(C)=O)[C@@H]1O (some centres unmarked) [penta-N-acetylchitopentaose] | inhibited NO production but with less potency | – | –
